# Laboratory results as given in patent US20030092757A1, “Favorable modulation of health-related quality of life and health-related quality-adjusted time-to-progression of disease in patients with prostate cancer” (priority 2001, published 2003).
# Test system: patients having hormone refractory prostate cancer (HRPCa)
# Experiment: Health-related quality-adjusted time-to-progression (QATTP) of disease, Kaplan-Meier product limit analysis, randomized placebo-controlled study
# Assay type: in vivo, human
# Description: The health-related QATTP of disease model for this invention expresses progression-free time as an equally preferable amount of time spent in full health. This is achieved by using patient-reported health-related QoL, as measured for the duration of observation or progression-free interval, to weight progression-free time. […] Patients received treatment with 10 mg (N=89) or 2.5 mg (N=95) of atrasentan or placebo (N=104) until experiencing a clinical event indicative of disease progression such as palliative opiate treatment of new bone or visceral pain, palliative radiation treatment of new bone pain, or new tumor growth symptoms requiring intervention or treatment with chemotherapy. Patient-reported health-related QoL data were collected with the EORTC QLQ-30 and the FACT-G and FACT-P, both of which were administered at baseline, at six week intervals and at each patient's final visit. The results from the 10 mg and 2.5 mg treatment groups are reported relative to the placebo group. A patient's transformed domain score and total score from both the EORTC QLQ-30 and FACT were used to weight the time-to-progression outcome data. Transformed domain scores ranged between 0 and 1, so the reported health-related QATTP of disease outcome was never larger than the actual time-to-progression. Each patient's health-related QATTP of disease was computed as the sum of the health-related QoL weights multiplied by the duration for which that patient experienced that health-related QoL. If a patient experienced a clinical event between two health-related QoL assessments, the set of health-related QoL domain scores immediately prior to the event were carried forward to the time of the clinical event. The mean and median health-related QATTP of disease outcomes were then estimated using Kaplan-Meier product limit methodology (Journal of the American Statistical Association, vol. 53, 1958, pp 457-481). The area under a Kaplan-Meier survival curve conveys an estimated mean health-related QATTP of disease. This analysis was applied to both intent-to-treat and per protocol population data. All health-related QATTP of disease comparisons between atrasentan and placebo treatment groups were based on a log-rank test with statistical significance at an α of 0.05. Results of the Kaplan-Meier product limit survival method analysis are reported in TABLE 2 (Intent to Treat) and TABLE 3 (Per Protocol Population). Mean and median health-related QATTP of disease are shown by treatment group. Log-rank tests comparing the differences between treatment groups are also reported.
# [1] = EORTC Physical Functioning, 10 mg, intent to treat
# [2] = EORTC Physical Functioning, 10 mg, per protocol
# [3] = EORTC Role Functioning, 2.5 mg, intent to treat
# [4] = EORTC Role Functioning, 2.5 mg, per protocol
# [5] = EORTC Role Functioning, 10 mg, intent to treat
# [6] = EORTC Role Functioning, 10 mg, per protocol
# [7] = EORTC Sleep Disturbance, 2.5 mg, intent to treat
# [8] = EORTC Sleep Disturbance, 2.5 mg, per protocol
# [9] = EORTC Sleep Disturbance, 10 mg, intent to treat
# [10] = EORTC Sleep Disturbance, 10 mg, per protocol
# [11] = EORTC Social Functioning, 2.5 mg, intent to treat
# [12] = EORTC Social Functioning, 2.5 mg, per protocol
# [13] = EORTC Social Functioning, 10 mg, intent to treat
# [14] = EORTC Social Functioning, 10 mg, per protocol
# [15] = FACT Emotional Well Being, 2.5 mg, intent to treat
# [16] = FACT Emotional Well Being, 2.5 mg, per protocol
# [17] = FACT Emotional Well Being, 10 mg, intent to treat
# [18] = FACT Emotional Well Being, 10 mg, per protocol
# [19] = FACT Functional Well Being, 2.5 mg, intent to treat
# [20] = FACT Functional Well Being, 2.5 mg, per protocol
# [21] = FACT Functional Well Being, 10 mg, intent to treat
# [22] = FACT Functional Well Being, 10 mg, per protocol
# [23] = FACT Physical Well Being, 2.5 mg, intent to treat
# [24] = FACT Physical Well Being, 2.5 mg, per protocol
# [25] = FACT Physical Well Being, 10 mg, intent to treat
# [26] = FACT Physical Well Being, 10 mg, per protocol
# [27] = FACT Social/Family Well Being, 2.5 mg, intent to treat
# [28] = FACT Social/Family Well Being, 2.5 mg, per protocol
# [29] = FACT Social/Family Well Being, 10 mg, intent to treat
# [30] = FACT Social/Family Well Being, 10 mg, per protocol
# [31] = FACT Total, 2.5 mg, intent to treat
# [32] = FACT Total, 2.5 mg, per protocol
# [33] = FACT Total, 10 mg, intent to treat
# [34] = FACT Total, 10 mg, per protocol
# [35] = FACT-G, 2.5 mg, intent to treat
# [36] = FACT-P, 2.5 mg, intent to treat
structure (smiles),measurement,setting,value
"CCCCN(CCCC)C(=O)CN1C[C@H](c2ccc3c(c2)OCO3)[C@@H](C(=O)O)[C@@H]1c1ccc(OC)cc1 [atrasentan, (2R,3R,4S)-2-(4-methoxyphenyl)-4-(1,3-benzodioxol-5-yl)-1-(((N,N-dibutylamino)carbonyl)methyl)pyrrolidine-3-carboxylic acid]",QATTP of Disease Median,"EORTC Physical Functioning, 2.5 mg, per protocol",124 days
same,QATTP of Disease Mean,[1],164 days
same,QATTP of Disease Median,[1],119 days
same,QATTP of Disease Mean,[2],168 days
same,QATTP of Disease Median,[2],127 days
same,QATTP of Disease Mean,[3],176 days
same,QATTP of Disease Median,[3],128 days
same,QATTP of Disease Mean,[4],185 days
same,QATTP of Disease Median,[4],142 days
same,QATTP of Disease Mean,[5],180 days
same,QATTP of Disease Median,[5],123 days
same,QATTP of Disease Mean,[6],187 days
same,QATTP of Disease Median,[6],128 days
same,QATTP of Disease Mean,[7],172 days
same,QATTP of Disease Median,[7],127 days
same,QATTP of Disease Mean,[8],179 days
same,QATTP of Disease Median,[8],137 days
same,QATTP of Disease Mean,[9],158 days
same,QATTP of Disease Median,[9],123 days
same,QATTP of Disease Mean,[10],162 days
same,QATTP of Disease Median,[10],127 days
same,QATTP of Disease Mean,[11],184 days
same,QATTP of Disease Median,[11],142 days
same,QATTP of Disease Mean,[12],192 days
same,QATTP of Disease Median,[12],156 days
same,QATTP of Disease Mean,[13],190 days
same,QATTP of Disease Median,[13],135 days
same,QATTP of Disease Mean,[14],196 days
same,QATTP of Disease Median,[14],141 days
same,QATTP of Disease Mean,[15],180 days
same,QATTP of Disease Median,[15],133 days
same,QATTP of Disease Mean,[16],188 days
same,QATTP of Disease Median,[16],147 days
same,QATTP of Disease Mean,[17],163 days
same,QATTP of Disease Median,[17],127 days
same,QATTP of Disease Mean,[18],168 days
same,QATTP of Disease Median,[18],131 days
same,QATTP of Disease Mean,[19],161 days
same,QATTP of Disease Median,[19],111 days
same,QATTP of Disease Mean,[20],168 days
same,QATTP of Disease Median,[20],111 days
same,QATTP of Disease Mean,[21],140 days
same,QATTP of Disease Median,[21],98 days
same,QATTP of Disease Mean,[22],144 days
same,QATTP of Disease Median,[22],113 days
same,QATTP of Disease Mean,[23],181 days
same,QATTP of Disease Median,[23],135 days
same,QATTP of Disease Mean,[24],191 days
same,QATTP of Disease Median,[24],148 days
same,QATTP of Disease Mean,[25],184 days
same,QATTP of Disease Median,[25],127 days
same,QATTP of Disease Mean,[26],190 days
same,QATTP of Disease Median,[26],130 days
same,QATTP of Disease Mean,[27],160 days
same,QATTP of Disease Median,[27],126 days
same,QATTP of Disease Mean,[28],169 days
same,QATTP of Disease Median,[28],143 days
same,QATTP of Disease Mean,[29],147 days
same,QATTP of Disease Median,[29],121 days
same,QATTP of Disease Mean,[30],151 days
same,QATTP of Disease Median,[30],126 days
same,QATTP of Disease Mean,[31],166 days
same,QATTP of Disease Median,[31],125 days
same,QATTP of Disease Mean,[32],174 days
same,QATTP of Disease Median,[32],135 days
same,QATTP of Disease Mean,[33],152 days
same,QATTP of Disease Median,[33],117 days
same,QATTP of Disease Mean,[34],157 days
same,QATTP of Disease Median,[34],127 days
same,QATTP of Disease Mean,[35],172 days
same,QATTP of Disease Median,[35],129 days
same,QATTP of Disease Mean,"FACT-G, 2.5 mg, per protocol",180 days
same,QATTP of Disease Median,"FACT-G, 2.5 mg, per protocol",143 days
same,QATTP of Disease Mean,"FACT-G, 10 mg, intent to treat",160 days
same,QATTP of Disease Median,"FACT-G, 10 mg, intent to treat",123 days
same,QATTP of Disease Mean,"FACT-G, 10 mg, per protocol",165 days
same,QATTP of Disease Median,"FACT-G, 10 mg, per protocol",130 days
same,QATTP of Disease Mean,[36],152 days
same,QATTP of Disease Median,[36],115 days
same,QATTP of Disease Mean,"FACT-P, 2.5 mg, per protocol",160 days
same,QATTP of Disease Median,"FACT-P, 2.5 mg, per protocol",117 days
same,QATTP of Disease Mean,"FACT-P, 10 mg, intent to treat",135 days
same,QATTP of Disease Median,"FACT-P, 10 mg, intent to treat",107 days
same,QATTP of Disease Mean,"FACT-P, 10 mg, per protocol",139 days
same,QATTP of Disease Median,"FACT-P, 10 mg, per protocol",111 days
same,health-related QATTP over placebo,"both 10 mg and 2.5 mg, per protocol population, after adjusting for health-related QoL effects",longer
same,mean health-related QATTP's of disease,"data in TABLE 3, both 10 mg and 2.5 mg treatment groups",both delays and improvement
same,differences in the QATTP across treatment groups,intent-to-treat population,no statistically significant differences
